Results taken from patent US10512667B2, “Compositions and methods for treating conditions related to adrenocortical activity and/or excessive steroid production” (The Regents of the University of Michigan, priority 2017, dated 2019).
Entries after “also recorded” stand apart in the source; their conditions may differ.

What was measured:
H295R cells [1] = assay: Cortisol secretion (indirect ELISA); assay type: cell-based
Procedure: Cortisol secretion was measured by replacing the culture medium with fresh medium containing the indicated compounds. The medium was collected at the indicated times. The cortisol concentration in the medium was measured using indirect ELISA (Arbor Assays).
After 48 h, the medium was removed and replaced with 50 μl of fresh medium. After the indicated incubation time, aliquots of the supernatant ranging from 0.5 to 10 μl were diluted in 50 μl of medium were used to measure the amount of cortisol secreted. Cortisol detection and quantification were performed by indirect ELISA according to the manufacturer's protocol (Arbor Assays #K003).

H295R cells [2] = assay: Cellular ATP level (CellTiter-Glo); settings: for ATP depletion at high concentrations of inhibitors of steroidogenesis: alone and in combination with ATR-101, 4 h; for ATP level, compound alone: serum-free medium; for ATP level in combination with ATR-101 versus separately: compound together with ATR-101 at concentrations not cytotoxic separately;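 for all read-outs here: ATP quantified by luminescence after lysing the cells in CellTiter-Glo reagent, with compound exposure at 37 °C under 5% CO2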
Procedure: The ATP levels of cells were measured by lysis in CellTiter-Glo reagent (Promega), and measurement of the luminescence.
After 48 h, 20-80 μl of medium was removed from each well and replaced with 20 μl of each compound diluted to 6× of the final concentration in the culture medium to produce a final volume of 120 μl. The cells were incubated at 37 C in 5% CO2 atmosphere for a time ranging from 15 min to 24 h. The medium was removed and immediately replaced with 50 μl of CellTiter-Glo luminescence cell viability assay reagent (Promega). The cells were lysed by agitation at room temperature for 20 min in the dark. The luminescence was measured using a SpectraMax M5 microplate reader (Molecular Devices) with a 0.5 s acquisition time. The luminescence (RLU) values for control cells ranged from 5000 to 20000 RLU in all experiments, and were scaled by a factor of 0.001 to plot all graphs.

H295R cells [3] = assay: Cholesterol efflux into serum-free medium with apoA1; assay type: cell-based; settings: serum-free medium containing apoA-I
Procedure: Cholesterol efflux was measured by replacing the culture medium with serum-free medium supplemented with 5 μg/ml apoA1 (Sigma) and the indicated compounds. After the indicated time, the serum-free medium was collected, and the cholesterol concentration was measured using the fluorometric enzyme-linked assay (Cayman Chemical).
After 48 h, the medium was removed and replaced with 50 μl serum-free medium supplemented with 5 μg/mL apoA1. After the indicated time, the supernatant containing the effluxed cholesterol, was transferred to a new 96-well plate. A cholesterol detection reagent (Cayman Chemical) consisting of cholesterol assay buffer, cholesterol assay detector (10-acetyl-3,7-dihydroxyphenoxazine [ADHP]), horseradish peroxidase, cholesterol oxidase, and cholesterol esterase was added, and the reactions were incubated for 30 min at 37 C. The fluorescence intensities were measured using ex. […] 590 nm. The cholesterol concentrations were calculated by interpolation between the values produced by cholesterol standards that were analyzed in parallel.

H295R cells [4] = assay: Visualization of cholesterol levels by filipin III binding; assay type: cell-based; settings: for cholesterol level (filipin III binding), compound alone: serum-free medium containing apoA-I, 4 h
Procedure: The cells were seeded in 96-well ibiTreat μ-Plates and allowed to adhere for 48 h prior to the start of each experiment. Cholesterol was detected in fixed cells by incubating with 100 μg/ml filipin III at 37 C for 2 h. […] Images were captured using either a 4× or a 60× objective. Cholesterol esterification was visualized by culturing the cells with 1 μM NBD-cholesterol for 2 h following incubation with the indicated compounds. […] Images were captured using either a 20× or a 60× objective.
The medium was removed and immediately replaced with 100 μl of 4% paraformaldehyde and the cells were fixed at room temperature for 20 min. The cells were washed twice with 200 μl PBS. […] The fixed cells were incubated with filipin III at 37 C in the dark for 2 h.

MDR1 = target: T1, MDR1 (Homo sapiens, UniProt P08183); assay: Doxorubicin accumulation / clearance in H295R cells; assay type: cell-based; settings: 25 μM doxorubicin, 20 μM compound, 2 h
T1 construct: measured the accumulation of doxorubicin in H295R cells; endogenous in cells; host or cells: H295R adrenocortical carcinoma cells
Procedure: The medium was removed and immediately replaced with 100 μl of fresh media and intracellular doxorubicin fluorescence was visualized by fluorescence microscopy using a 20× objective.

[5] = H295R cells cultured with the compound together with ATR-101, 4 h
[6] = H295R cells, serum-free medium containing apoA-I, together with ATR-101

## Cc1c(C)c2c(c(C)c1O)CC[C@@](C)(CCC[C@H](C)CCC[C@H](C)CCCC(C)C)O2 [α-tocopherol]
H295R cells [1]; 40 μM of the compound together with ATR-101, 4 h
  effect on the inhibition of cortisol secretion by ATR-101: neither compound prevented the inhibition of cortisol secretion
H295R cells [2]; [5]
  effect on ATP depletion by ATR-101: restored normal or nearly normal ATP levels
H295R cells [2]; [6]
  effect on ATP depletion by ATR-101: restored the ATP level
H295R cells [3]; together with ATR-101
  effect on the inhibition of cholesterol efflux by ATR-101: did not restore cholesterol efflux

## CC(=O)O[C@H]1CC[C@@]2(C)C(=CC[C@@H]3[C@@H]2CC[C@]2(C)C(c4cccnc4)=CC[C@@H]32)C1 [abiraterone acetate]
H295R cells [2]; H295R cells
  ATP depletion at high concentrations of inhibitors of steroidogenesis: enhanced ATP depletion

## COc1ccc(CCN(C)CCCC(C#N)(c2ccc(OC)c(OC)c2)C(C)C)cc1OC (stereo not shown) [verapamil]
H295R cells [1]; cortisol in medium, 4 h or time course
  cortisol secretion, compound alone: inhibited cortisol secretion
H295R cells [2]; H295R cells, 4 h
  ATP level, compound alone: did not reduce the ATP levels
H295R cells [4]; H295R cells
  cholesterol level (filipin III binding), compound alone: increased the level of cholesterol in intracellular membranes; also recorded: caused cholesterol accumulation

## CCCCC/C=C\C/C=C\CCCCCCCC(=O)O[C@H]1CC[C@@]2(C)C(=CC[C@H]3[C@@H]4CC[C@H]([C@H](C)CCCC(C)C)[C@@]4(C)CC[C@@H]32)C1 [cholesterol linoleate]
H295R cells [2]; H295R cells cultured with the compound together with ATR-101, 24 h
  effect on ATP depletion by ATR-101: did not prevent
H295R cells [4]; H295R cells cultured with the compound together with ATR-101, 4 h or 24 h
  effect on cholesterol accumulation caused by ATR-101: did not prevent the accumulation of cellular cholesterol

## rhodamine-123
H295R cells [2]; H295R cells, 4 h
  ATP level in combination with ATR-101 versus separately: larger than additive reductions in the ATP levels
H295R cells [2]; H295R cells, 4 h, listed as rhodamine 123
  ATP level in combination with ATR-101 versus separately: caused ATP depletion at concentrations that did not deplete ATP individually
H295R cells [2]; H295R cells, ATR-101 and rhodamine-123 in combination, 4 h
  fold lower concentration that reduced the ATP level in combination than required separately: 5 fold

## NC(=NCc1ccccc1)NC(=O)c1nc(Cl)c(N)nc1N [benzamil]
MDR1
  doxorubicin accumulation: did not increase doxorubicin accumulation

## COc1ccc(Cl)cc1C(=O)NCCc1ccc(S(=O)(=O)NC(=O)NC2CCCCC2)cc1 [glibenclamide]
H295R cells [2]; H295R cells, 4 h
  ATP level in combination with ATR-101 versus separately: did not cause a larger than additive reduction in the ATP levels; also recorded: did not increase the efficiency of ATP depletion
  ATP level, compound alone: did not reduce the ATP level
H295R cells [4]; H295R cells
  cholesterol level (filipin III binding), compound alone: lack of cholesterol accumulation
H295R cells [4]; H295R cells, listed as Glibenclamide
  cholesterol level (filipin III binding), compound alone: did not cause cholesterol accumulation
H295R cells [3]; 4 h
  cholesterol efflux, compound alone: blocked cholesterol efflux

## CC(C)CCC[C@@H](C)[C@H]1CC[C@H]2[C@@H]3CCC4=CC(=NO)CC[C@]4(C)[C@H]3CC[C@]12C [olesoxime]
H295R cells [2]; [5]
  effect on ATP depletion by ATR-101: reduced ATP depletion by ATR-101
H295R cells [2]; [6]
  effect on ATP depletion by ATR-101: reduced ATP depletion by ATR-101
H295R cells [3]; together with ATR-101, listed as Olesoxime
  effect on the inhibition of cholesterol efflux by ATR-101: no detectable effect on the inhibition of cholesterol efflux

## CC(=O)N1CCN(c2ccc(OCC3COC(Cn4ccnc4)(c4ccc(Cl)cc4Cl)O3)cc2)CC1 (stereo not shown) [ketoconazole]
H295R cells [2]; H295R cells
  ATP depletion at high concentrations of inhibitors of steroidogenesis: enhanced ATP depletion

## CCN(CC)CCO[C@H]1CC[C@@]2(C)C(=CC[C@@H]3[C@@H]2CC[C@]2(C)C(=O)CC[C@@H]32)C1 [U18666A, 3β-(2-diethylaminoethoxy)-5-androsten-17-one]
H295R cells [2]; H295R cells, 4 h
  ATP level in combination with ATR-101 versus separately: caused ATP depletion at concentrations that had no detectable effect on the ATP level separately
H295R cells [4]; H295R cells, 20 μM ATR-101 with 5 μM benzamil (1 h) or 8 μM U18666A (serum-free)
  cholesterol accumulation in combination with ATR-101 versus separately: greater than additive increase in cholesterol accumulation
